Results: ChEMBL document CHEMBL3045349, “A comparative study on the interference of two herbicides in wheat and italian ryegrass and on their antioxidant activities and detoxification rates” (J Agric Food Chem, 2011)

Legend:
Triticum aestivum [1] = assay: Effect on antioxidant enzyme system in Triticum aestivum (wheat) shoots assessed as dehydroascorbate reductase activity per mg protein compound administered at rate of 14 mf/flat measured 72 hr post treatment (reference value: 4.7 nmol/s per mg protein); assay type: functional
Lolium multiflorum [2] = assay: Effect on photosynthetic activity in Lolium multiflorum (Italian ryegrass) shoots assessed as leaf net photosynthesis rate measured by CO2 production compound administered at rate of 14 mf/flat measured 48 hr post treatment (reference value: 4.89 umol/m2/s); assay type: functional
Triticum aestivum [3] = assay: Increase in antioxidant enzyme system in Triticum aestivum (wheat) shoots assessed as increase in dehydroascorbate reductase activity compound administered at rate of 14 mf/flat measured 48 hr post treatment; assay type: functional
Triticum aestivum [4] = assay: Increase in antioxidant enzyme system in Triticum aestivum (wheat) shoots assessed as increase in dehydroascorbate reductase activity compound administered at rate of 14 mf/flat measured 24 hr post treatment; assay type: functional
Lolium multiflorum [5] = assay: Effect on photosynthetic activity in Lolium multiflorum (Italian ryegrass) shoots assessed as leaf net photosynthesis rate measured by CO2 production compound administered at rate of 14 mf/flat measured 72 hr post treatment (reference value: 4.45 umol/m2/s); assay type: functional
Lolium multiflorum [6] = assay: Increase in MDA content in Lolium multiflorum (Italian ryegrass) shoots compound administered at rate of 14 mf/flat measured 72 hr post treatment; assay type: functional
Lolium multiflorum [7] = assay: Effect on antioxidant enzyme system in Lolium multiflorum (Italian ryegrass) shoots assessed as glutathione S-transferase activity per mg protein compound administered at rate of 14 mf/flat measured 48 hr post treatment (reference value: 0.35 nmol/s per mg protein); assay type: functional
Triticum aestivum [8] = assay: Effect on antioxidant enzyme system in Triticum aestivum (wheat) shoots assessed as ascorbate peroxidase activity per mg protein compound administered at rate of 14 mf/flat measured 24 hr post treatment (reference value: 15.7 nmol/s per mg protein); assay type: functional
Triticum aestivum [9] = assay: Effect on antioxidant enzyme system in Triticum aestivum (wheat) shoots assessed as ascorbate peroxidase activity per mg protein compound administered at rate of 14 mf/flat measured 72 hr post treatment (reference value: 17.2 nmol/s per mg protein); assay type: functional
Shoot [10] = assay: Drug level in Triticum aestivum (wheat) shoots compound administered at rate of 14 mf/flat measured 96 hr post treatment by HPLC; assay type: ADME
Shoot [11] = assay: Drug level in Lolium multiflorum (Italian ryegrass) shoots compound administered at rate of 14 mf/flat measured 96 hr post treatment by HPLC; assay type: ADME
Lolium multiflorum [12] = assay: Increase in glutathione S-transferase activity in Lolium multiflorum (Italian ryegrass) compound administered at rate of 14 mf/flat measured 72 hr post treatment; assay type: functional
Triticum aestivum [13] = assay: Effect on antioxidant enzyme system in Triticum aestivum (wheat) shoots assessed as glutathione S-transferase activity per mg protein compound administered at rate of 14 mf/flat measured 24 hr post treatment (reference value: 2.7 nmol/s per mg protein); assay type: functional
Triticum aestivum [14] = assay: Effect on photosynthetic activity in Triticum aestivum (wheat) shoots assessed as leaf net photosynthesis rate measured by CO2 production compound administered at rate of 14 mf/flat measured 72 hr post treatment (reference value: 1.46 umol/m2/s); assay type: functional
Lolium multiflorum [15] = assay: Effect on antioxidant enzyme system in Lolium multiflorum (Italian ryegrass) shoots assessed as dehydroascorbate reductase activity per mg protein compound administered at rate of 14 mf/flat measured 48 hr post treatment (reference value: 3.6 nmol/s per mg protein); assay type: functional
Triticum aestivum [16] = assay: Effect on antioxidant enzyme system in Triticum aestivum (wheat) shoots assessed as glutathione S-transferase activity per mg protein compound administered at rate of 14 mf/flat measured […] post treatment (reference value: 2.4 nmol/s per mg protein); assay type: functional
Lolium multiflorum [17] = assay: Increase in antioxidant enzyme system in Lolium multiflorum (Italian ryegrass) shoots assessed as increase in ascorbate peroxidase activity compound administered at rate of 14 mf/flat measured 24 hr post treatment; assay type: functional
Triticum aestivum [18] = assay: Effect on antioxidant enzyme system in Triticum aestivum (wheat) shoots assessed as catalase activity per mg protein compound administered at rate of 14 mf/flat measured 48 hr post treatment (reference value: 0.12 nmol/s per mg protein); assay type: functional
Triticum aestivum [19] = assay: Reduction in glutathione S-transferase activity in Triticum aestivum (wheat) shoots compound administered at rate of 14 mf/flat measured 24 hr post treatment; assay type: functional; parameters: scale not given: the % may be the effect or the level left
Lolium multiflorum [20] = assay: Increase in antioxidant enzyme system in Lolium multiflorum (Italian ryegrass) shoots assessed as increase in dehydroascorbate reductase activity compound administered at rate of 14 mf/flat measured 24 hr post treatment; assay type: functional
Lolium multiflorum [21] = assay: Effect on photosynthetic activity in Lolium multiflorum (Italian ryegrass) shoots assessed as dark respiration rate measured by CO2 production compound administered at rate of 14 mf/flat measured 48 hr post treatment (reference value: -1.68 umol/m2/s); assay type: functional
Lolium multiflorum [22] = assay: Effect on MDA content in Lolium multiflorum (Italian ryegrass) shoots compound administered at rate of 14 mf/flat measured 24 hr post treatment (reference value: 0.68 uM/L); assay type: functional
Lolium multiflorum [23] = assay: Increase in antioxidant enzyme system in Lolium multiflorum (Italian ryegrass) shoots shoots assessed as increase in glutathione reductase activity compound administered at rate of 14 mf/flat measured 24 hr post treatment; assay type: functional
Lolium multiflorum [24] = assay: Effect on antioxidant enzyme system in Lolium multiflorum (Italian ryegrass) shoots assessed as ascorbate peroxidase activity per mg protein compound administered at rate of 14 mf/flat measured 24 hr post treatment (reference value: 12.5 nmol/s per mg protein); assay type: functional
Lolium multiflorum [25] = assay: Increase in glutathione S-transferase activity in Lolium multiflorum (Italian ryegrass) compound administered at rate of 14 mf/flat measured 48 hr post treatment; assay type: functional
Lolium multiflorum [26] = assay: Effect on antioxidant enzyme system in Lolium multiflorum (Italian ryegrass) shoots assessed as dehydroascorbate reductase activity per mg protein compound administered at rate of 14 mf/flat measured 24 hr post treatment (reference value: 3.9 nmol/s per mg protein); assay type: functional
Lolium multiflorum [27] = assay: Increase in glutathione S-transferase activity in Lolium multiflorum (Italian ryegrass) compound administered at rate of 14 mf/flat measured 24 hr post treatment; assay type: functional
Lolium multiflorum [28] = assay: Effect on photosynthetic activity in Lolium multiflorum (Italian ryegrass) shoots assessed as dark respiration rate measured by CO2 production compound administered at rate of 14 mf/flat measured 24 hr post treatment (reference value: -1.51 umol/m2/s); assay type: functional
Lolium multiflorum [29] = assay: Effect on antioxidant enzyme system in Lolium multiflorum (Italian ryegrass) shoots assessed as catalase activity per mg protein compound administered at rate of 14 mf/flat measured 24 hr post treatment (reference value: 0.13 nmol/s per mg protein); assay type: functional
Triticum aestivum [30] = assay: Effect on antioxidant enzyme system in Triticum aestivum (wheat) shoots assessed as dehydroascorbate reductase activity per mg protein compound administered at rate of 14 mf/flat measured 24 hr post treatment (reference value: 4.6 nmol/s per mg protein); assay type: functional
Lolium multiflorum [31] = assay: Increase in antioxidant enzyme system in Lolium multiflorum (Italian ryegrass) shoots assessed as increase in ascorbate peroxidase activity compound administered at rate of 14 mf/flat measured 48 hr post treatment; assay type: functional
Triticum aestivum [32] = assay: Effect on MDA content in Triticum aestivum (wheat) shoots compound administered at rate of 14 mf/flat measured 48 hr post treatment (reference value: 0.053 uM/L); assay type: functional

SMILES | Activity (Triticum aestivum [1]) | Activity (Lolium multiflorum [2]) | Activity (Triticum aestivum [3]) | Activity (Triticum aestivum [4]) | Activity (Lolium multiflorum [5]) | Activity (Lolium multiflorum [6]) | Activity (Lolium multiflorum [7]) | Activity (Triticum aestivum [8]) | Activity (Triticum aestivum [9]) | Drug uptake (Shoot [10]) | Drug uptake (Shoot [11]) | Activity (Lolium multiflorum [12]) | Activity (Triticum aestivum [13]) | Activity (Triticum aestivum [14]) | Activity (Lolium multiflorum [15]) | Activity (Triticum aestivum [16]) | Activity (Lolium multiflorum [17]) | Activity (Triticum aestivum [18]) | Activity (Triticum aestivum [19]) | Activity (Lolium multiflorum [20]) | other results
CCNc1nc(Cl)nc(NC(C)C)n1 [ATRAZINE] | 5.7 nmol/s/mg protein | -1.04 micromol/m2/s | 15% | 20% | -1.35 micromol/m2/s | 10% | 0.71 nmol/s/mg protein | 22 nmol/s/mg protein | 18 nmol/s/mg protein | 1.94 ppm | 4.22 ppm | 24% | 1.7 nmol/s/mg protein | 0 micromol/m2/s | 3.5 nmol/s/mg protein | 2.5 nmol/s/mg protein | 20% | 0.11 nmol/s | 37% | 15% | Activity (Lolium multiflorum [21]): -1.56 micromol/m2/s; Activity (Lolium multiflorum [22]): 0.85 µM; Activity (Lolium multiflorum [23]): 27%; Activity (Lolium multiflorum [24]): 15 nmol/s/mg protein; Activity (Lolium multiflorum [25]): 103%; Activity (Lolium multiflorum [26]): 4.5 nmol/s/mg protein; Activity (Lolium multiflorum [27]): 35%; Activity (Lolium multiflorum [28]): -1.32 micromol/m2/s; Activity (Lolium multiflorum [29]): 0.13 nmol/s; Activity (Triticum aestivum [30]): 5.5 nmol/s/mg protein; Activity (Lolium multiflorum [31]): 26%; Activity (Triticum aestivum [32]): 0.53 µM
O=[N+]([O-])c1ccc(Oc2ccc(C(F)(F)F)cc2[N+](=O)[O-])cc1 [FLUORODIFEN] | 6.8 nmol/s/mg protein | 4.42 micromol/m2/s | 11% | 9% | 4.05 micromol/m2/s | 10% | 1.65 nmol/s/mg protein | 22.9 nmol/s/mg protein | 17.2 nmol/s/mg protein | 0.08 ppm | 0.36 ppm | 35% | 2.3 nmol/s/mg protein | 1.25 micromol/m2/s | 4.3 nmol/s/mg protein | 2.3 nmol/s/mg protein | 11% | 0.12 nmol/s | 15% | 8% | Activity (Lolium multiflorum [21]): -1.36 micromol/m2/s; Activity (Lolium multiflorum [22]): 0.64 µM; Activity (Lolium multiflorum [23]): 72%; Activity (Lolium multiflorum [24]): 13.9 nmol/s/mg protein; Activity (Lolium multiflorum [25]): 371%; Activity (Lolium multiflorum [26]): 4.2 nmol/s/mg protein; Activity (Lolium multiflorum [27]): 97%; Activity (Lolium multiflorum [28]): -1.42 micromol/m2/s; Activity (Lolium multiflorum [29]): 0.11 nmol/s; Activity (Triticum aestivum [30]): 5 nmol/s/mg protein; Activity (Lolium multiflorum [31]): 35%; Activity (Triticum aestivum [32]): 0.05 µM
